# Residues, ends and D or L forms follow the SMILES beside them.
# What was measured:
# [1] = Water solubility of the peptides; format: physicochemical
# From the text: The physicochemical properties of the peptides of the present invention obtained by the above-described process are shown below.
# [2] = system: human peripheral blood leukocytes; assay: Measurement of phagocytosis activity (fluorescence-labeled latex beads, flow cytometry); format: cell-based; conditions: rate based on the control (only PBS)
# Experimental: To human peripheral blood was added physiological saline containing phosphate buffer (PBS), and the resulting mixture was centrifuged at 1000 rpm for 5 minutes to wash blood cells. Then, the blood cells were suspended in PBS to prepare a suspension having a density of 4 x 10^6 cells/ml. To 100 µl of the suspension was added 10 µl of a solution of a peptide in PBS, followed by incubation at 37°C for 10 minutes. Then, 10 µl of a suspension of 4 x 10^8/ml fluorescence-labeled latex beads opsonized with human peripheral blood was added thereto, and the resulting mixture was incubated for 5 minutes. To the mixture was added PBS containing ethylenediaminetetraacetic acid (EDTA) to stop the reaction. The resulting mixture was centrifuged to separate blood cells, and an ammonium chloride hemolyzing agent was added thereto for hemolysis to obtain leukocytes. After the obtained leukocytes were suspended in PBS containing EDTA, the resulting suspension was subjected to flow cytometry, and the number of cells which phagocytosed latex beads was calculated.
# The results are expressed in terms of the rate based on the control (containing only PBS).
# C3H/HeSlc mice = assay: Effect on hair growth of mouse (feed administration); format: in vivo; conditions: 20th day, control group subtracted
# Experimental: A test of the effect on hair growth of mice was carried out referring to the method of Ogawa, et al. [The Journal of Dermatology, 10, 45-54 (1983)].
# Nine-weeks-old male C3H/HeSlc mice whose hair cycle was in the telogen (Japan SLC) were divided into groups each consisting of 4 or 5 mice. Hair on the back of each mouse was carefully shaven using electric hair clippers and an electric shaver. Then, the mice were fed with the feeds prepared in Reference Examples 1-4.
# The control group was fed only with a powder feed containing no peptide of the present invention (CE-2, Clea Japan, Inc.)
# On the 20th day after the start of the test, the skin on the back of each mouse was cut off and photographed. Using an image processor (Avionics Co., Spicca II), the percentage of the hair-grown area to the total area of the skin on the back was calculated. The rate of the increased hair-grown area (%) was obtained by subtracting the hair-growing rate of the control group from the hair-growing rate of the group fed with a powder feed containing a peptide of the present invention.
# [3] = system: mouse hair follicle cells; assay: Cell growth-promoting effect on cultured mouse hair follicle cells (Neutral Red); format: cell-based, C3H mouse; conditions: 5 days culture
# Experimental: Mouse hair follicle cells were separated and cultured according to a modification of the method of Tanigaki, et al. [Archives of Dermatological Research, 284, 290-296 (1992)].
# The skin on the back of a 4-days-old C3H mouse (Nippon Charles River Co., Ltd.) was cut off and treated with Eagle's MEM (Eagle's Minimum Essential Medium, Nissui Pharmaceutical Co., Ltd.) containing 500 units/ml Dispase (Godo Shusei Co., Ltd.) and 5% fetal calf serum (FCS) at 4°C for 16 hours. Then, the epidermis was stripped from the skin section, and the obtained dermis layer was treated with DMEM (Dulbecco's Modified Eagle Medium) containing 0.25% Collagenase N-2 (Nitta Gelatin Co., Ltd.) and 10% FCS at 37°C for one hour to obtain a dermis suspension. The dermis suspension was filtered through a 212-µm nylon mesh (Nippon Rikagaku Kikai Co., Ltd.) and the filtrate was centrifuged at 1000 rpm for 5 minutes to obtain pellets containing hair follicle tissue. To the pellets was added calcium/magnesium-free PBS (Dulbecco's Phosphate-Buffered Saline) and the pellets were suspended therein using a pipette. The resulting suspension was allowed to stand for 15 minutes to precipitate the hair tissue. The same procedure as above (addition of calcium/magnesium-free PBS, preparation of a suspension using a pipette, and precipitation by standing for 15 minutes) was repeated three times using the obtained hair tissue. Then, the hair tissue was treated with an aqueous solution containing 0.1% ethylenediaminetetraacetic acid (EDTA) and 0.25% trypsin (Gibco) at 37°C for 5 minutes. To the resulting mixture was added DMEM containing 10% FCS to prepare a hair tissue cell suspension having a density of 3 x 10^5 cells/ml.
# This hair tissue cell suspension was put into wells of a 24-well collagen-coated plate (Iwaki Glass Co., Ltd.) in an amount of 1 ml/well, followed by culturing in 5% CO2 at 37°C for 24 hours. After the completion of culturing, the medium was replaced by a medium prepared by adding to MCDB153 medium (Kyokuto Pharmaceutical Ind. Co., Ltd.) 5 mg/l bovine insulin (Sigma Chemical Co.), 5 µg/l mouse epidermal growth factor (EGF) (Takara Shuzo Co., Ltd.), 40 mg/l bovine pituitary extract (Kyokuto Pharmaceutical Ind. Co., Ltd.), 10 mg/l human transferrin (Sigma Chemical Co.), 0.4 mg/l hydrocortisone (Sigma Chemical Co.), 0.63 µg/l progesterone (Collaborative Research Co.), 14 mg/l O-phosphoethanolamine (Sigma Chemical Co.), 6.1 mg/l ethanolamine (Sigma Chemical Co.), 50 U/ml penicillin (Wako Pure Chemical Industries, Ltd.), 50 µg/ml streptomycin (Wako Pure Chemical Industries, Ltd.) and a dimethyl sulfoxide (DMSO) solution containing a peptide of the present invention (added in an amount of 1/100 by volume based on the medium), followed by further culturing in 5% CO2 at 37°C for 5 days. During the culturing, the medium was replaced with a fresh one every other day.
# As a control, the cells were cultured in the same medium as above except that DMSO containing no peptide was added in an amount of 1/100 by volume based on the culture in place of DMSO containing the peptide.
# The degree of cell growth was measured referring to the method using Neutral Red [Journal of Tissue Culture Method, 9, 1, 7-9 (1984)].
# After the completion of culturing, the medium was sucked and the resulting cells were cultured in MCDB153 medium containing 50 mg/l Neutral Red (Sigma Chemical Co.) in 5% CO2 at 37°C for 3 hours. […] The degree of cell growth was determined by measuring the absorbance of the extract at 540 nm. […]
Compound,solubility [1] [µg/mL],Phagocytosis activity ([2]; Concentration 1 µM),Phagocytosis activity ([2]; Concentration 3 µM),Phagocytosis activity ([2]; Concentration 10 µM),other results
CC[C@H](C)[C@H](NC(=O)[C@@H](N)CCSC)C(=O)N[C@@H](Cc1c[nH]c2ccccc12)C(=O)N[C@@H](CC(C)C)C(=O)O [MIWL] (H-MIWL-OH),200,3.11 ± 0.07,3.04 ± 0.50,,Rate of increased hair-grown area (%) (C3H/HeSlc mice; 0.05% addition to feed): 34.4%; Phagocytosis activity ([2]; Concentration 0.1 µM): 1.93 ± 0.18; Phagocytosis activity ([2]; Concentration 0.3 µM): 2.74 ± 0.25
CC[C@H](C)[C@H](NC(=O)[C@@H](N)CCSC)C(=O)N[C@@H](Cc1ccc(O)cc1)C(=O)N[C@@H](CC(C)C)C(=O)O [MIYL] (H-MIYL-OH),300,1.32 ± 0.15,2.21 ± 0.25,3.12 ± 0.32,
CC[C@H](C)[C@H](NC(=O)[C@@H](N)CCSC)C(=O)N[C@@H](Cc1c[nH]c2ccccc12)C(=O)O [MIW] (H-Met-Ile-Trp-OH),1000,,,,Relative cell growth rate (%) (based on the control) ([3]; Concentration 1 µM): 97%; Relative cell growth rate (%) (based on the control) ([3]; Concentration 3 µM): 143%; Relative cell growth rate (%) (based on the control) ([3]; Concentration 10 µM): 130%; Relative cell growth rate (%) (based on the control) ([3]; Concentration 30 µM): 123%; Relative cell growth rate (%) (based on the control) ([3]; Concentration 100 µM): 119%; Rate of increased hair-grown area (%) (C3H/HeSlc mice; 0.005% addition to feed): 20.7%; Rate of increased hair-grown area (%) (C3H/HeSlc mice; 0.05% addition to feed): 23.7%
CC[C@H](C)[C@H](NC(=O)[C@@H](N)CCSC)C(=O)N[C@@H](Cc1ccccc1)C(=O)O [MIF] (H-Met-Ile-Phe-OH),30000,,,,Rate of increased hair-grown area (%) (C3H/HeSlc mice; 0.005% addition to feed): 26.8%

# Continued, in another order:
solubility [1] [µg/mL],Compound,Phagocytosis activity ([2]; Concentration 1 µM),Phagocytosis activity ([2]; Concentration 3 µM),Phagocytosis activity ([2]; Concentration 10 µM),other results
200,CC[C@H](C)[C@H](NC(=O)[C@@H](N)CCSC)C(=O)N[C@@H](Cc1ccccc1)C(=O)N[C@@H](CC(C)C)C(=O)O [MIFL] (H-MIFL-OH),2.45 ± 0.17,3.06 ± 0.25,,Phagocytosis activity ([2]; Concentration 0.1 µM): 1.10 ± 0.09; Phagocytosis activity ([2]; Concentration 0.3 µM): 1.68 ± 0.08
200,CC[C@H](C)[C@H](NC(=O)[C@@H](N)CCSC)C(=O)N[C@@H](CC(C)C)C(=O)N[C@@H](CC(C)C)C(=O)O [MILL] (H-MILL-OH),,1.28 ± 0.09,2.05 ± 0.08,Phagocytosis activity ([2]; Concentration 30 µM): 2.97 ± 0.17
200,CC[C@H](C)[C@H](NC(=O)[C@@H](NC(=O)[C@@H](N)CCSC)[C@@H](C)CC)C(=O)N[C@@H](CC(C)C)C(=O)O [MIIL] (H-MIIL-OH),1.18 ± 0.07,1.62 ± 0.08,2.52 ± 0.18,Phagocytosis activity ([2]; Concentration 30 µM): 2.95 ± 0.20

# From EP1132396A1, “PHYSIOLOGICALLY ACTIVE PEPTIDES” (KYOWA HAKKO KOGYO CO., LTD., priority 1998, dated 2000)
